Paper PMC5706701, “Development of a homogenous high-throughput assay for inositol hexakisphosphate kinase 1 activity” (PLoS ONE, 2017)
Where a name gives a salt, the structure may show the parent alone. Read-outs that look alike come from different tables or passages of the source.

Target: T1, Human IP6K1 (Homo sapiens, UniProt Q92551)
T1 construct: GST (N, cleaved yes); made in house; host or cells: C43 E. coli, pGEX-6P-2
Assay: IP6K1 high-throughput screen of the Sigma LOPAC (ADP-Glo Max, single point);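 also: final compound concentration 10µM in 5% DMSO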
Type: biochemical

[1] = LOPAC single-point screen, ADP-Glo Max raw signal per well
[2] = LOPAC single-point screen, Z-score against plate average and StDev
[3] = LOPAC single-point screen, Z-score from raw signal with plate average and StDev
[4] = LOPAC single-point screen, ADP-Glo Max luminescence raw signal per well
[5] = LOPAC single-point screen, Z-score relative to plate average and StDev
[6] = Sigma LOPAC single-point screen, ADP-Glo Max raw signal per well
[7] = Sigma LOPAC single-point screen, Z-score from plate average and StDev
[8] = LOPAC single-point screen, Z-score from plate average and StDev

T1 sequence (Q92551 whole entry): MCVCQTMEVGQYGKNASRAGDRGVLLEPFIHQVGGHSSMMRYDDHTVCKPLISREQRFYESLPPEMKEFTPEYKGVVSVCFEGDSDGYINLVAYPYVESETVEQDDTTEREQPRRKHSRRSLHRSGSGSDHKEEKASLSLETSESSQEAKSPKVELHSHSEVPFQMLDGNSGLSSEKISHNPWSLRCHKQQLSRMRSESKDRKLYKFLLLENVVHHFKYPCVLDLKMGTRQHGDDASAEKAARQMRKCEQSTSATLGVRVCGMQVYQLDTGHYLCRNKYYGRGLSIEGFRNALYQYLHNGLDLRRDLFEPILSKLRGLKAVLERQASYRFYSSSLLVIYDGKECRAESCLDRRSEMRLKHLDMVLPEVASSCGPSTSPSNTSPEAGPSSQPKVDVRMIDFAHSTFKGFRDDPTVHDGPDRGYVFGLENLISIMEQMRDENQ

In the case of `Cl.Clc1ccc(N2CCN(Cc3c[nH]c4ncccc34)CC2)cc1` [L-745,870 hydrochloride], the “Raw Signal” value [1] is reported as 55866 and the Z-score [2] is reported as 0.2474.
For `N[C@H](CO)C(=O)O` [D-Serine], the “Raw Signal” value [1] was 53973 and the Z-score [3] was -0.3984.
In the case of `CC(C)c1cccc(C(C)C)c1O` [Propofol], the “Raw Signal” value is reported as 48098 and the Z-score is reported as -1.436.
For `C=CCN1CC[C@]23c4c5ccc(O)c4O[C@@H]2/C(=N/N=C2\CC[C@@]4(O)C6Cc7ccc(O)c8c7[C@@]4(CCN6CC=C)[C@@H]2O8)CC[C@@]3(O)C1C5.Cl.Cl` [Naloxonazine dihydrochloride], the “Raw Signal” value [4] was 51290 and the Z-score [5] was -0.5215.
For `O=C([O-])CCC(NC(=O)c1ccccc1C(=O)[O-])C(=O)[O-].[Na+].[Na+].[Na+]` [Phthalamoyl-L-glutamic acid trisodium], the “Raw Signal” value [6] was 58114 and the Z-score [7] was 0.4061.
With `CCN(CCCl)Cc1ccccc1Br.Cl` [DSP-4 hydrochloride] the “Raw Signal” value [1] was 57186 and the Z-score [3] was -0.1281.
With `CC(C)C[C@H]1C(=O)N2CCC[C@H]2[C@]2(O)O[C@](NC(=O)[C@@H]3C=C4c5cccc6[nH]c(Br)c(c56)C[C@H]4N(C)C3)(C(C)C)C(=O)N12.CS(=O)(=O)O` [(+)-Bromocriptine methanesulfonate] the “Raw Signal” value [1] was 59214 and the Z-score [2] was 0.2291.
In the case of `CCCn1c(=O)[nH]c(=O)c2nc[nH]c21` [3-n-Propylxanthine], the “Raw Signal” value [6] is reported as 57454 and the Z-score [7] is reported as 0.5142.
`C[C@@H]1O[C@H](C[N+](C)(C)C)CS1.[I-]` [OXA-22 iodide] was tested, and the “Raw Signal” value [6] was 57438 and the Z-score [7] was 0.4612.
For `C=C[C@H]1C[N@@]2CC[C@H]1C[C@@H]2[C@@H](O)c1ccnc2ccc(OC)cc12` [Quinidine sulfate], the “Raw Signal” value [1] was 56373 and the Z-score [2] was 0.06784.
With `CN1CCN(C2Cc3ccccc3Sc3ccc(Cl)cc32)CC1.O=C(O)/C=C\C(=O)O` (racemic) [(±)-Octoclothepin maleate] the “Raw Signal” value [6] was 60782 and the Z-score [7] was 1.073.
In the case of `C[C@]12CC[C@@H](O)C[C@@H]1CC[C@@H]1[C@@H]2CC[C@]2(C)[C@@H](C(=O)CO)CC[C@@H]12`, the “Raw Signal” value [1] is reported as 54259 and the Z-score [2] is reported as -0.0226.
With `O=C(O)Cc1c[nH]c2ccc(O)cc12` [5-Hydroxyindolacetic acid] the “Raw Signal” value [6] was 56978 and the Z-score [7] was 0.3678.
`CC(=O)OCC1=C(C(=O)[O-])N2C(=O)[C@@H](NC(=O)CCC[C@@H](N)C(=O)[O-])[C@H]2SC1.[Zn+2]` [Cephalosporin C zinc salt] was tested, and the “Raw Signal” value [1] was 57645 and the Z-score [2] was -0.04722.
`CN(C)CC/C=C1/c2ccccc2Sc2ccc(Cl)cc21` [Chlorprothixene hydrochloride] was tested, and the “Raw Signal” value [6] was 61517 and the Z-score [7] was 0.6347.
In the case of `Cc1ccc(N(CC2=NCCN2)c2cccc(O)c2)cc1` [Phentolamine mesylate], the “Raw Signal” value [1] is reported as 54426 and the Z-score [3] is reported as -0.3104.
With `CC(=O)O[C@H]1C[C@@H]2CC[C@@H]3[C@H](CC[C@@]4(C)[C@H]3C[C@H]([N+]3(C)CCCCC3)[C@@H]4OC(C)=O)[C@@]2(C)C[C@@H]1[N+]1(C)CCCCC1` [Pancuronium bromide] the “Raw Signal” value [6] was 59072 and the Z-score [7] was 0.7861.
`CC(C)C1C2CCC(C2)C1N.Cl` (racemic) [AGN 192403 hydrochloride] was tested, and the “Raw Signal” value [4] was 53820 and the Z-score [5] was -0.7209.
For `CCC1(c2ccc(N)cc2)CCC(=O)NC1=O` (racemic) [(±)-p-Aminoglutethimide], the “Raw Signal” value [1] was 58613 and the Z-score [2] was 0.1233.
For `Cl.NOCC(=O)O.NOCC(=O)O`, the “Raw Signal” value [4] was 66377 and the Z-score [8] was 1.491.
In the case of `C[C@H](O)C(=O)C1=Nc2c(nc(N)[nH]c2=O)NC1` [Sepiapterin], the “Raw Signal” value [6] is reported as 58753 and the Z-score [7] is reported as 0.5302.
With `CNc1ncnc2c1ncn2[C@H]1C[C@H](OP(=O)(O)O)[C@@H](COP(=O)(O)O)O1` [MRS 2179] the “Raw Signal” value [4] was 51414 and the Z-score [5] was -0.5006.
`O=C(O)/C=C\C(=O)O.O=C(O)/C=C\C(=O)O.c1ccc2nc(N3CCNCC3)ccc2c1` [Quipazine dimaleate] was tested, and the “Raw Signal” value [1] was 57228 and the Z-score [2] was 0.234.
With `NCC(CP(=O)(O)O)c1ccc(Cl)cc1` (centres unmarked) [Phaclofen] the “Raw Signal” value [6] was 61057 and the Z-score [7] was 0.9779.
For `CCCn1c(=O)c2[nH]c(-c3ccc(S(=O)(=O)O)cc3)nc2n(CCC)c1=O` [1,3-Dipropyl-8-p-sulfophenylxanthine], the “Raw Signal” value [4] was 54862 and the Z-score [5] was -0.5374.
For `CCN(CC)CCNC(=O)c1ccc(NC(C)=O)cc1.Cl` [N-Acetylprocainamide hydrochloride], the “Raw Signal” value [4] was 70393 and the Z-score [8] was 2.198.
In the case of `Clc1cnc(Oc2ccc(Oc3ncc(Cl)cc3Cl)cc2)c(Cl)c1` [TCPOBOP], the “Raw Signal” value [1] is reported as 54822 and the Z-score [3] is reported as -0.2335.
`O=C(CCCN1CCC(O)(c2cccc(C(F)(F)F)c2)CC1)c1ccc(F)cc1` [Trifluperidol hydrochloride] was tested, and the “Raw Signal” value [1] was 56876 and the Z-score [2] was 0.1656.
`C[C@H]1CCC/C=C/[C@@H]2C[C@H](O)C[C@H]2[C@H](O)/C=C/C(=O)O1` was tested, and the “Raw Signal” value [6] was 59928 and the Z-score [7] was 0.3549.
`CS(=O)(=O)O.Cn1cc(C(F)(F)F)nc1-c1ccc(OCC(O)CNCCOc2ccc(O)c(C(N)=O)c2)cc1` (centres unmarked) [CGP 20712A methanesulfonate] was tested, and the “Raw Signal” value [6] was 57129 and the Z-score [7] was 0.3985.
For `C#CCOC(=O)C1=CCCN(C)C1` [Arecaidine propargyl ester hydrobromide], the “Raw Signal” value [1] was 56259 and the Z-score [3] was -0.2913.
For `CCOC(=O)[C@]12CC1/C(=N\O)c1ccccc1O2` (mixture of isomers) [CPCCOEt], the “Raw Signal” value [1] was 59801 and the Z-score [2] was 0.3325.
For `Oc1ccc2c3c1O[C@H]1[C@@H](O)CC[C@@]4(O)[C@@H](C2)N(CC2CCC2)CC[C@]314` [Nalbuphine hydrochloride], the “Raw Signal” value was 53889 and the Z-score was -0.08477.
`O=c1cc(-c2ccc(O)cc2)oc2cc(O)cc(O)c12` [Apigenin] was tested, and the “Raw Signal” value [4] was 54339 and the Z-score [5] was -0.6295.
With `N#C/C(=C\c1ccc(O)c(O)c1)C(=O)NCCCc1ccccc1` [Tyrphostin AG 555] the “Raw Signal” value [1] was 55783 and the Z-score [2] was -0.04678.
In the case of `O=C([O-])/C=C/C(O)c1ccc(Cl)cc1.[Na+]` (centres unmarked) [NCS-356], the “Raw Signal” value [6] is reported as 58969 and the Z-score [7] is reported as 0.7688.
With `C=CCc1ccccc1OCC(O)CNC1(C)CCC(C(C)(C)NC(=O)CBr)CC1` (centres unmarked) [Bromoacetyl alprenolol menthane] the “Raw Signal” value [1] was 55252 and the Z-score [3] was -0.4687.
`CC#C[C@]1(O)CC[C@H]2[C@@H]3CCC4=CC(=O)CCC4=C3[C@@H](c3ccc(N(C)C)cc3)C[C@@]21C` [Mifepristone] was tested, and the “Raw Signal” value [6] was 60991 and the Z-score [7] was 1.109.
For `COc1cc(/C=C(\C#N)C(=O)c2ccc(O)c(O)c2)cc(I)c1O` [I-OMe-Tyrphostin AG 538], the “Raw Signal” value [1] was 53763 and the Z-score [3] was -0.4392.
`O=C1NCN(c2ccccc2)C12CCN(CCCC(c1ccc(F)cc1)c1ccc(F)cc1)CC2` [Fluspirilene] was tested, and the “Raw Signal” value [4] was 52037 and the Z-score [5] was -0.6357.
`CN1CCC(=C2c3ccccc3C=Cc3ccccc32)CC1` [Cyproheptadine hydrochloride] was tested, and the “Raw Signal” value [6] was 61620 and the Z-score [7] was 0.6529.
For `Br.Br.N=C(N)SCCc1ccc(CCSC(=N)N)cc1` [1,4-PBIT dihydrobromide], the “Raw Signal” value [4] was 52088 and the Z-score [5] was -0.7647.
In the case of `CCCCCCCCCCCCCCC[C@H](O)[C@H](N)CO` (racemic) [DL-erythro-Dihydrosphingosine], the “Raw Signal” value [1] is reported as 54857 and the Z-score [2] is reported as -0.06296.
